The results in this text go back to ChEMBL document CHEMBL1151289, “Biosynthesis of ganefromycin: results from blocked mutants and bioconversion experiments” (1998).

≈ marks a conversion by molar mass, not a printed value.

What is called MIC is the lowest concentration found to suppress growth. Read a high MIC as weaker potency.

For this test, the system named is Priestia megaterium. In words: Antimicrobial activity against Bacillus megaterium. It is filed as functional.
In the case of `C/C=C\C=C\[C@@H]1O[C@](O)([C@H](C)C(=O)NC/C=C/C=C(\C)C(O)C(C)C2CC(O)C(/C=C/C=C/C=C/C(=O)O)O2)C[C@H](O)C1(C)C` (stereo not given in full), the MIC is > 100 µg/mL.
In the case of `C/C=C\C=C\[C@@H]1O[C@](O)([C@H](CO[C@H]2C[C@H](OC)[C@H](O[C@@H]3C[C@@H](OC)[C@@H](O[C@H]4C[C@H](OC)[C@H](O)[C@H](C)O4)[C@H](C)O3)[C@H](C)O2)C(=O)NC/C=C/C=C(\C)C(OC)C(C)C(=O)CC(O)C/C=C/C=C/C=C/C(=O)O)C[C@H](O)C1(C)C` (stereo not given in full) it was 3.1 µg/mL (≈ 2.84 µM); in that of `C/C=C\C=C\[C@@H]1O[C@](O)([C@H](CO)C(=O)NC/C=C/C=C(\C)C(OC)C(C)C2CC(O)C(/C=C/C=C/C=C/C(=O)O)O2)[C@H](O)[C@H](O)C1(C)C` (stereo not given in full), 50 µg/mL (≈ 74 µM); in that of `C/C=C\C=C\[C@@H]1O[C@](O)([C@H](CO[C@H]2C[C@H](OC)[C@H](O[C@@H]3C[C@@H](OC)[C@@H](O[C@H]4C[C@H](OC)[C@H](O)[C@H](C)O4)[C@H](C)O3)[C@H](C)O2)C(=O)NC/C=C/C=C(\C)C(OC)C(C)C2CC(O)C(/C=C/C=C/C=C/C(=O)O)O2)C[C@H](O)C1(C)C` (stereo not given in full), 6.3 µg/mL (≈ 5.77 µM).
In the case of `C/C=C\C=C\[C@@H]1O[C@](O)([C@H](C)C(=O)NC/C=C/C=C(\C)C(OC)C(C)C2CC(O)C(/C=C/C=C/C=C/C(=O)O)O2)[C@H](OC(=O)Cc2ccccc2)[C@H](O)C1(C)C` (stereo not given in full) it was 12.5 µg/mL (≈ 16.1 µM); in that of `C/C=C\C=C\[C@@H]1O[C@](O)([C@H](CO[C@H]2C[C@H](O)[C@H](O)[C@H](C)O2)C(=O)NC/C=C/C=C(\C)C(OC)C(C)C2CC(O)C(/C=C/C=C/C=C/C(=O)O)O2)[C@H](O)[C@H](OC(=O)Cc2ccccc2)C1(C)C` (stereo not given in full), 50 µg/mL (≈ 54.1 µM).
With `C/C=C\C=C\[C@@H]1O[C@](O)([C@H](CO[C@H]2C[C@H](O)[C@H](O)[C@H](C)O2)C(=O)NC/C=C/C=C(\C)C(OC)C(C)C2CC(O)C(/C=C/C=C/C=C/C(=O)O)O2)[C@H](O)[C@H](O)C1(C)C` (stereo not given in full), the minimum inhibitory concentration (MIC) came to 100 µg/mL (≈ 124 µM). Against the preceding molecule, the MIC is about 2-fold higher.
As to `C/C=C\C=C\[C@@H]1O[C@](O)([C@@H](CO[C@H]2C[C@H](OC)[C@H](O[C@@H]3C[C@@H](OC)[C@@H](O[C@H]4C[C@H](OC)[C@H](O)[C@H](C)O4)[C@H](C)O3)[C@H](C)O2)C(=O)NC/C=C/C=C(\C)C(OC)C(C)C2CC(O)C(/C=C/C=C/C=C/C(=O)O)O2)C[C@H](O)C1(C)C` (stereo not given in full), the minimum inhibitory concentration (MIC) stood at 6.3 µg/mL (≈ 5.77 µM).
As to `C/C=C\C=C\[C@@H]1O[C@](O)([C@H](C)C(=O)NC/C=C/C=C(\C)C(O)C(C)C2CC(O)C(/C=C/C=C/C=C/C(=O)O)O2)[C@H](O)[C@H](O)C1(C)C` (stereo not given in full), the MIC was 100 µg/mL (≈ 155 µM). Against the preceding molecule, the MIC is about 16-fold higher.
Turning to `C/C=C\C=C\[C@@H]1O[C@](O)([C@H](CO[C@H]2C[C@H](OC)[C@H](O[C@@H]3C[C@@H](OC)[C@@H](O[C@H]4C[C@H](OC)[C@H](O)[C@H](C)O4)[C@H](C)O3)[C@H](C)O2)C(=O)NC/C=C/C=C(\C)C(OC)C(C)C2CC(O)C(/C=C/C=C/C=C/C(=O)O)O2)[C@H](OC(=O)Cc2ccccc2)[C@H](O)C1(C)C` (stereo not given in full), the minimum inhibitory concentration (MIC) was found to be 0.4 µg/mL (≈ 0.326 µM).
In the case of `C/C=C\C=C\[C@@H]1O[C@](O)([C@H](C)C(=O)NC/C=C/C=C(\C)C(OC)C(C)C2CC(O)C(/C=C/C=C/C=C/C(=O)O)O2)[C@H](O)[C@H](O)C1(C)C` (stereo not given in full) it was 6.3 µg/mL (≈ 9.55 µM).
In the case of `C/C=C\C=C\[C@@H]1O[C@](O)([C@@H](CO[C@@H]2O[C@@H](C)[C@@H](C)[C@@H](O[C@@H]3C[C@@H](OC)[C@@H](O)[C@H](C)O3)[C@H]2OC)C(=O)NC/C=C/C=C(\C)C(OC)C(C)C2CC(O)C(/C=C/C=C/C=C/C(=O)O)O2)C[C@H](O)C1(C)C` (stereo not given in full) it was 12.6 µg/mL (≈ 13.1 µM).
In the case of `C/C=C\C=C\[C@@H]1O[C@](O)([C@H](CO[C@H]2C[C@H](O)[C@H](O)[C@H](C)O2)C(=O)NC/C=C/C=C(\C)C(OC)C(C)C2CC(O)C(/C=C/C=C/C=C/C(=O)O)O2)[C@H](OC(=O)Cc2ccccc2)[C@H](O)C1(C)C` (stereo not given in full) it was 12.5 µg/mL (≈ 13.5 µM).
Turning to `C/C=C\C=C\[C@@H]1O[C@](O)([C@@H](C)C(=O)NC/C=C/C=C(\C)C(O)C(C)C2CC(O)C(/C=C/C=C/C=C/C(=O)O)O2)C[C@H](O)C1(C)C` (stereo not given in full), the minimum inhibitory concentration (MIC) was > 100 µg/mL.
`C/C=C\C=C\[C@@H]1O[C@](O)([C@H](CO[C@@H]2O[C@@H](C)[C@@H](C)[C@@H](O[C@@H]3C[C@@H](OC)[C@@H](O)[C@H](C)O3)[C@H]2OC)C(=O)NC/C=C/C=C(\C)C(OC)C(C)C2CC(O)C(/C=C/C=C/C=C/C(=O)O)O2)C[C@H](O)C1(C)C` (stereo not given in full): 12.6 µg/mL (≈ 13.1 µM) was the least that counted as inhibitory (MIC).
